Results reported in PMC10644722, “Discovery of inhibitors of protein tyrosine phosphatase 1B contained in a natural products library from Mexican medicinal plants and fungi using a combination of enzymatic and in silico methods**” (Frontiers in Pharmacology, 2023).
“And” between values parts separate entries of the source, which are not always exact repeats. Equal entries are not always repeated. “Also recorded” adds a separate entry of the source. Where two headings read alike, the source gives them in different places.

Key:
hPTP1B1-400 = biological target: T1, hPTP1B1-400 (Homo sapiens, UniProt P18031); experiment: PTP1B inhibition assay (spectrophotometric, 4-nitrophenyl phosphate); format: biochemical; conditions: for ΔA, activity difference between UA and the compound: absolute pIC50 difference against ursolic acid
T1 sequence (P18031 1-400): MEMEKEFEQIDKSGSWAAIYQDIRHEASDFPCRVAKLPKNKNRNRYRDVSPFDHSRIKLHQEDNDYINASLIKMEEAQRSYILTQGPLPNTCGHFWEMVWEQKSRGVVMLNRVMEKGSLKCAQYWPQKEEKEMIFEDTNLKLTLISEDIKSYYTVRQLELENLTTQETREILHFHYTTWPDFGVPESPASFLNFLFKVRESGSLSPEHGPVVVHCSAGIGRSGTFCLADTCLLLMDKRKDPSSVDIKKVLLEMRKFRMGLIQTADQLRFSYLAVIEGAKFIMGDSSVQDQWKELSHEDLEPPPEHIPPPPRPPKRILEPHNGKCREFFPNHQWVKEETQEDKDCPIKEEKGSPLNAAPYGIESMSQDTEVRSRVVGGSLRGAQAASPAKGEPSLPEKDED
Procedure: The inhibitory activity was determined as a percentage compared to the blank (Buffer) according to the following equation: %InhibitionPTP1B=1−A405s/A405b×100%, (1) where A405(s) is the ΔA of the sample (At20 − At0), A405(b) is the ΔA of the blank obtained in the same manner as that of the sample. Using the data obtained, the enzyme inhibition curve was plotted, for which the average percentage of inhibition was plotted as a function of the inhibitor concentration.

PTP1B [1] = biological target: T2, PTP1B (Homo sapiens, UniProt P18031); experiment: Kinetic analysis of PTP1B inhibition; format: biochemical; conditions: for type of inhibition: double-reciprocal plots, global nonlinear fit; for VMAX: maximum velocity, nonlinear fit, substrate 4-NP
T2 sequence (P18031 1-400): T1 sequence (P18031 1-400)
Procedure: The conditions for preparing reagents (enzyme and substrate), incubation, and analysis of results were the same as that described in Section 2.1 ([Jiménez-Arreola et al., 2020]; [Díaz-Rojas et al., 2021]). Additional steps in the methodology are described below.
To characterize the type of inhibition exerted by 1, 3, and 6 on PTP1B, the hydrolysis of 4-NP at the sub-saturating state and increasing concentrations of each compound was measured. […] The compound concentration yielding 50% activity inhibition was interpolated from the results by fitting into a general inhibition model. The resulting set of activities was fitted globally using the non-linear regression algorithm of Levenberg–Marquardt as implemented in the Gnuplot ([Williams et al., 2017]). Each group was fitted to the kinetic equations for linear competitive, linear uncompetitive, linear non-competitive (classic), linear mixed type, parabolic competitive, parabolic uncompetitive, and parabolic non-competitive inhibition mechanisms. The best fit was ascertained by the reduced chi-squared (χ^2) value, residual distribution, and uncertainty in the parameter estimates. The best description of the inhibition data for compounds 1, 3, and 6 was obtained with Eq. 2, Eq. 3, and Eq. 4, respectively, where VMAX, KM, and KIcu, KIC, and KIU are the maximum velocity, Michaelis constant for the substrate 4-NP, and inhibition constants for each type of inhibition, respectively. v0=VMAX4NP/KM1+I/KIcu+4NP1+I/KIcu, (2) v0=VMAX4NP/KM1+I/KIC+4NP1+I/KIU, (3) v0=VMAX4NP/KM1+I/KIC+I^2/KIC2^2+4NP. (4)

ICR mice = conditions: male, mouse, in vivo, 14 days
Procedure: The potential acute toxicity of compound 6 was determined according to the Lorke’s method ([Lorke, 1983]). The evaluation was performed following the Official Mexican Norm for Laboratory Animal Care and Use (NOM-062-ZOO-1999), with international conventional codes for laboratory animal use, and approved by the Institutional Committee for Care and Use of Laboratory Animals (CICUAL-FQ), Facultad de Química, UNAM (FQ/CICUAL/440/21). […]. At the end of the experiments, the mice were euthanized by hypoxia in a CO2 chamber.
Compound 6 was fed by an intragastric route in two independent phases. In each case, 12 mice were divided into four groups (n = 3). In the first stage, the animals were treated with 10, 100, and 1,000 mg/kg; in the second phase, 1,600, 2,900, and 5,000 mg/kg were administered. The control animals were fed 0.05% Tween 80® in saline solution. The weight of the animals was measured daily for 14 days at each stage. At the end of the test, all animals were euthanized to obtain the lungs, heart, kidneys, and liver to detect macroscopic organ injury.

PTP1B [2] = tested on: PTP1B; design: method as in Lantz et al., 2010; Kumar et al., 2020; conditions: known inhibitors of PTP1B; ref Lantz et al., 2010; Kumar et al., 2020; cited from earlier work
[3] = DoseResp model fit, Origin 8.0, axis C (mM), read-out: LOGx0 of the IC50 curve
[4] = enzyme 66 nM, 4-NP 0.125 mM, Tris-HCl pH 6.8, 20 min, room temperature, read-out: IC50
[5] = negative log of the IC50 in Molar, read-out: pIC50 (converted)
[6] = mixed type (Eq. 3) or parabolic competitive model (Eq. 4), read-out: KIC
[7] = negative log of the IC50 in Molar
[8] = Hill1 model fit, Origin 8.0, axis C (mM), read-out: k of the IC50 curve
[9] = IC50 (μM), enzyme 66 nM, 4-NP 0.125 mM, Tris-HCl pH 6.8, 20 min, room temperature
[10] = LOGx0 of the IC50 curve, DoseResp model fit, Origin 8.0, axis C (mM)
[11] = pIC50, negative log of the IC50 in Molar

| Compound | IC50 (hPTP1B1-400; [3]) | ΔA, activity difference between UA and the compound (hPTP1B1-400) | IC50 (hPTP1B1-400; [4]) | IC50 (hPTP1B1-400; [5]) | pIC50 (hPTP1B1-400; [7]) | also measured |
| --- | --- | --- | --- | --- | --- | --- |
| C[C@H]1C(=O)CC[C@@H]2[C@]1(C)CC[C@H]1[C@@]2(C)CC[C@@]2(C)[C@@H]3CC(C)(C)CC[C@]3(CO)CC[C@]12C [Compound 1, Canophyllol] | 0.0332 ± 0.00257 mM | 0.2 | 0.0332 ± 3e-06 mM | 0.0331 mM | – | %I (hPTP1B1-400; 0.02 mM compound): 95.54 ± 1.82%; %I (hPTP1B1-400; 1 mM compound): 98.59 ± 0.28%; type of inhibition (PTP1B [1]): non-competitive inhibitor; VMAX (PTP1B [1]): 44.1 mM/min; Ki (PTP1B [1]; non-competitive model (Eq. 2), read-out: KIcu): 9 µM |
| COc1c(O)cc2ccc3cccc(O)c3c2c1OC [Compound 3, 3,4-Dimethoxy-2,5-phenanthrenediol] | 0.0477 ± 0.0982 mM | 0.34 and 0.3 | 0.0477 ± 0.0001 mM | 0.0479 mM | – | %I (hPTP1B1-400; 0.02 mM compound): 70.62 ± 0.58%; %I (hPTP1B1-400; 1 mM compound): 97.4 ± 0.69%; type of inhibition (PTP1B [1]): mixed-type; also recorded: mixed inhibitor; VMAX (PTP1B [1]): 56.1 mM/min; Ki (PTP1B [1]; [6]): 40 µM; Ki (PTP1B [1]; mixed type model (Eq. 3), read-out: KIU): 110 µM |
| CC=CC1=CC=CC(=C2C(=O)CNC2=O)O1 [Compound 6, E/Z-vermelhotin] | 0.0796 ± 0.0957 mM | 0.6 and 0.56 | 0.0796 ± 0.0001 mM | 0.0794 mM | – | type of inhibition (PTP1B [1]): competitive parabolic inhibition; VMAX (PTP1B [1]): 24.7 mM/min; Ki (PTP1B [1]; [6]): 31 µM; Ki (PTP1B [1]; parabolic competitive model (Eq. 4), second inhibitor molecule, read-out: KIC2): 20 µM; LC50 (ICR mice): higher than 5,000 mg/kg |
| CC(=O)OC[C@H]1O[C@@H](Oc2cc(O)cc3oc(=O)cc(-c4ccc(O)c(O)c4)c23)[C@H](O)[C@@H](O)[C@H]1O [Compound 67, 6''-O-acetyl-5-O-β-D-galactopyranosyl-7,3',4'-trihydroxy-4-phenylcoumarin] | 0.254 ± 0.203 mM | 1.1 | 0.2543 ± 0.0002 mM | – | 3.59 | – |
| COc1cc(O[C@@H]2O[C@H](CO[C@@H]3OCC(O)(CO)[C@H]3O)[C@@H](O)[C@H](O)[C@H]2O)c2c(-c3ccc(O)c(O)c3)cc(=O)oc2c1 (stereo partly drawn) [Compound 73, 5-O-β-D-Apiofuranosyl-(1→6)-β-D-glucopyranosyl-7-metoxi-3'-4'-dihydroxy-4-phenylcoumarin] | 0.359 ± 0.0682 mM | 1.2 | 0.3586 ± 7e-05 mM | – | 3.45 | – |
| O=C(O[C@@H]1Cc2c(O)cc(O)cc2O[C@@H]1c1ccc(O)c(O)c1)c1cc(O)c(O)c(O)c1 [Compound 82, (-)-Epicatechin 3-O-gallate] | – | 0.8 | 0.1424 ± 7e-06 mM | – | 3.85 | IC50 (hPTP1B1-400; [8]): 0.142 ± 0.00656 mM |
| CCC(C=CC(C)C1CCC2C3=CCC4CC(O)CCC4(C)C3CCC21C)C(C)C (stereo not drawn) [Compound 84, α-Spinasterol] | 0.989 ± 0.137 mM | 1.7 and 1.66 | 0.9891 ± 0.00014 mM | 1 mM | – | – |
| CC[C@H](/C=C/[C@@H](C)[C@H]1CC[C@H]2C3=CC[C@H]4C[C@@H](OC(C)=O)CC[C@]4(C)[C@H]3CC[C@]12C)C(C)C [Compound 85, α-Spinasterol acetate] | – | 1.1 | – | – | – | IC50 (hPTP1B1-400; [9]): 0.2772 ± 1e-05 mM; IC50 (hPTP1B1-400; [10]): 0.277 ± 0.0114 mM; IC50 (hPTP1B1-400; [11]): 0.275 mM |
| COC(=O)/C(C)=C\CC[C@H](C)[C@@H]1CC[C@]2(C)C3=CCC4C(C)(C)C(=O)CC[C@]4(C)C3CC[C@@]12C (stereo partly drawn) [Compound 86, Methyl ester of masticadienonic acid] | 0.325 ± 0.00894 mM | 1.2 | 0.3245 ± 1e-06 mM | 0.324 mM | – | – |
| CC(=CCCC(C)C1CCC2(C)C3=C(CCC12C)C1(C)CCC(=O)C(C)(C)C1CC3)C(=O)O (stereo not drawn) [Compound 89, Isomasticadienonic acid] | 0.419 ± 0.00938 mM | 1.3 and 1.28 | 0.419 ± 1e-05 mM | 0.417 mM | – | – |
| CC(=O)OCC(C)C1CCC2(C)C1CCC1(C)C2CCC2C3(C)CCCC(C)(C)C3CCC21C (stereo not drawn) [Compound 90, 21-α-H-Hopane acetate] | – | 1.6 and 1.61 | 0.8839 ± 0.0002 mM | 0.891 mM | – | IC50 (hPTP1B1-400; [8]): 0.884 ± 0.213 mM |
| COc1cc(CCc2ccc(OC)c(OC)c2)cc(OC)c1 [Compound 91, 3,3',4',5-Tetramethoxybibenzyl] | – | 1.3 | – | – | – | IC50 (hPTP1B1-400; [9]): 0.4195 ± 6e-06 mM; IC50 (hPTP1B1-400; [10]): 0.42 ± 0.00629 mM; IC50 (hPTP1B1-400; [11]): 0.417 mM |
| CC1(C)C=Cc2cc3ccc(=O)oc3cc2O1 [Compound 93, Xanthyletin] | – | 1.6 | 0.8646 ± 0.00015 mM | 0.871 mM | – | IC50 (hPTP1B1-400; [8]): 0.865 ± 0.148 mM |
| COc1c2c(cc3oc(C)cc(=O)c13)OC(C)(C)[C@H](O)C2 [Compound 94, (+)-5-Methoxyhamaudol] | – | 1.1 | 0.2985 ± 0.00015 mM | – | 3.53 | IC50 (hPTP1B1-400; [8]): 0.298 ± 0.146 mM |
| C=CC(C)(C)C12CC3(O)c4nc5ccccc5c(=O)n4C(C(C)C)C(=O)N3C1N(C(C)=O)c1ccccc12 (stereo not drawn) [Compound 96, Albolutein A] | – | -0.1 | 0.0191 ± 0.0014 mM | 0.0191 mM | – | – |
| C=CC(C)(C)[C@@]12Nc3ccccc3[C@]1(O)C[C@@]1(O)c3nc4ccccc4c(=O)n3[C@@H](C(C)C)C(=O)N12 [Compound 97, Albolutein B] | – | 0.1 | 0.0258 ± 0.0258 mM | – | 4.59 | – |
| Cc1cc(-c2c3ccccc3c(Br)c3sc(C)c(C)c23)cc(C)c1O[C@H](Cc1ccccc1)C(=O)O [E, ertiprotafib] | – | – | – | – | – | pIC50 (PTP1B [2]): 4.70 |
| CC(C)[C@@H](CC[C@@H](C)[C@H]1CC[C@H]2[C@@H]3[C@H](O)C[C@H]4C[C@@H](NCCCNCCCCNCCCN)CC[C@]4(C)[C@H]3CC[C@]12C)OS(=O)(=O)O [T, trodusquemine] | – | – | – | – | – | pIC50 (PTP1B [2]): 6.0 |
| Albolutein C [Compound 98] | – | 0.8 | 0.13 ± 0.0026 mM | – | 3.89 | – |
| Calein A [Compound 46] | 0.234 ± 0.0196 mM | 1.0 | 0.2345 ± 2e-05 mM | – | 3.63 | – |
